Measured values from ChEMBL document CHEMBL4354781, “Drug-resistance in Mycobacterium tuberculosis: where we stand” (2019).
Values after ≈ are worked out from the molar mass of the structure shown. Numbered stars: 1 amine (or outer) side, 2 acyl side, 3 side chain; on linkers, the order of the positions; unused ones are H or OH. Bridge positions count the residues as written; N and C are the ends. Square brackets hold non-standard residues; d marks the D form. Peptide text beside a SMILES is read from it. * marks the point of attachment. X1 = N=C1NCC[C@H]([C@H](N[*:1])C(=O)[*:2])N1; ΔAla(Z-3-ureido) = NC(=O)N/C=C(\N)C(=O)O; β3hOrn = NCCC[C@H](N)CC(=O)*; Dap = NC[C@H](N)C(=O)O

Assays:
Format in all cases: functional
[1] = system: Mycobacterium tuberculosis; test: Antitubercular activity against resistant Mycobacterium tuberculosis harboring pncA D8N mutant incubated for 3 weeks
[2] = system: Mycobacterium tuberculosis; test: Antitubercular activity against resistant Mycobacterium tuberculosis harboring pncA Cys138S mutant incubated for 3 weeks
[3] = system: Mycobacterium tuberculosis; test: Antitubercular activity against resistant Mycobacterium tuberculosis harboring embCAB Gly406Asp/Ala mutant
[4] = system: Mycobacterium tuberculosis; test: Antitubercular activity against resistant Mycobacterium tuberculosis harboring embCAB Met306IIe/Val mutant
[5] = system: Mycobacterium tuberculosis; test: Antitubercular activity against resistant Mycobacterium tuberculosis harboring rrs A1401G mutant
[6] = system: Mycobacterium tuberculosis; test: Antitubercular activity against resistant Mycobacterium tuberculosis harboring rrs A1401G mutant after 3 to 6 weeks
[7] = system: Mycobacterium tuberculosis; test: Antitubercular activity against resistant Mycobacterium tuberculosis TDR harboring inhA Promoter (c-15 t)/IIe21Thr mutant
[8] = system: Mycobacterium tuberculosis; test: Antitubercular activity against resistant Mycobacterium tuberculosis TDR harboring inhA Promoter (c-15 t)/Ser94Ala mutant
[9] = system: Mycobacterium tuberculosis; test: Antitubercular activity against resistant Mycobacterium tuberculosis TDR harboring katG Ser315Thr mutant
[10] = system: Mycobacterium tuberculosis; test: Antitubercular activity against resistant Mycobacterium tuberculosis Bangladesh isolate harboring inhA Promoter (c-15 t)/IIe21Thr mutant
[11] = system: Mycobacterium tuberculosis; test: Antitubercular activity against resistant Mycobacterium tuberculosis Bangladesh isolate harboring inhA Promoter (c-15 t)
[12] = system: Mycobacterium tuberculosis; test: Antitubercular activity against resistant Mycobacterium tuberculosis TDR harboring inhA Promoter (c-15 t) mutant
[13] = system: Mycobacterium tuberculosis; test: Antitubercular activity against resistant Mycobacterium tuberculosis Bangladesh isolate harboring katG Ser315Thr mutant
[14] = system: Mycobacterium tuberculosis; test: Antitubercular activity against resistant Mycobacterium tuberculosis Bangladesh isolate harboring inhA Promoter (c-15 t)/Ser94Ala mutant
[15] = system: Mycobacterium tuberculosis; test: Antitubercular activity against resistant Mycobacterium tuberculosis 5 harboring rpoB His526Tyr mutant by absolute concentration-microtiter method
[16] = system: Mycobacterium tuberculosis; test: Antitubercular activity against resistant Mycobacterium tuberculosis 2 harboring rpoB Ser531Leu mutant after 4 weeks by absolute concentration-microtiter method
[17] = system: Mycobacterium tuberculosis; test: Antitubercular activity against resistant Mycobacterium tuberculosis 1 harboring rpoB Ser531Leu mutant after 4 weeks by absolute concentration-microtiter method
[18] = system: Mycobacterium tuberculosis; test: Antitubercular activity against resistant Mycobacterium tuberculosis 8 harboring rpoB His526Pro mutant by absolute concentration-microtiter method
[19] = system: Mycobacterium tuberculosis; test: Antitubercular activity against resistant Mycobacterium tuberculosis 72 harboring rpoB His526Asp mutant by absolute concentration-microtiter method
[20] = system: Mycobacterium tuberculosis; test: Antitubercular activity against resistant Mycobacterium tuberculosis 6 harboring rpoB Ser531Leu mutant after 4 weeks by absolute concentration-microtiter method
[21] = system: Mycobacterium tuberculosis; test: Antitubercular activity against resistant Mycobacterium tuberculosis 75 harboring rpoB Ser531Leu mutant after 4 weeks by absolute concentration-microtiter method
[22] = system: Mycobacterium tuberculosis; test: Antitubercular activity against resistant Mycobacterium tuberculosis 76 harboring rpoB Ser531Leu mutant after 4 weeks by absolute concentration-microtiter method
[23] = system: Mycobacterium tuberculosis; test: Antitubercular activity against resistant Mycobacterium tuberculosis 3 harboring rpoB Ser531Leu mutant after 4 weeks by absolute concentration-microtiter method
[24] = system: Mycobacterium tuberculosis; test: Antitubercular activity against resistant Mycobacterium tuberculosis 74 harboring rpoB His526Tyr mutant by absolute concentration-microtiter method
[25] = system: Mycobacterium tuberculosis; test: Antitubercular activity against resistant Mycobacterium tuberculosis 7 harboring rpoB His526Tyr mutant by absolute concentration-microtiter method
[26] = system: Mycobacterium tuberculosis; test: Antitubercular activity against resistant Mycobacterium tuberculosis 21 harboring rpoB Ser531Leu mutant after 4 weeks by absolute concentration-microtiter method
[27] = system: Mycobacterium tuberculosis; test: Antitubercular activity against resistant Mycobacterium tuberculosis 26 harboring rpoB Ser531Leu mutant after 4 weeks by absolute concentration-microtiter method
[28] = system: Mycobacterium tuberculosis; test: Antitubercular activity against resistant Mycobacterium tuberculosis 73 harboring rpoB His526Tyr mutant by absolute concentration-microtiter method
[29] = system: Mycobacterium tuberculosis; test: Antitubercular activity against resistant Mycobacterium tuberculosis 23 harboring rpoB His526Asp mutant by absolute concentration-microtiter method
[30] = system: Mycobacterium tuberculosis; test: Antitubercular activity against resistant Mycobacterium tuberculosis 4 harboring rpoB Ser531Leu mutant after 4 weeks by absolute concentration-microtiter method
[31] = system: Mycobacterium tuberculosis; test: Antitubercular activity against resistant Mycobacterium tuberculosis harboring rplC Cys154Arg mutant
[32] = system: Mycobacterium tuberculosis; test: Antitubercular activity against multidrug resistant Mycobacterium tuberculosis
[33] = system: Mycobacterium tuberculosis; test: Antitubercular activity against resistant Mycobacterium tuberculosis harboring rrs C1402T mutant after 3 to 6 weeks
[34] = system: Mycobacterium tuberculosis; test: Antitubercular activity against resistant Mycobacterium tuberculosis harboring rrs G37T mutant after 3 to 6 weeks
[35] = system: Mycobacterium tuberculosis; test: Antitubercular activity against resistant Mycobacterium tuberculosis harboring rrs G1484T/C-12T mutant after 3 to 6 weeks
[36] = system: Mycobacterium tuberculosis; test: Antitubercular activity against resistant Mycobacterium tuberculosis harboring gyrA Asp94Tyr mutant incubated for 28 days by absolute concentration method
[37] = system: Mycobacterium tuberculosis; test: Antitubercular activity against resistant Mycobacterium tuberculosis harboring gyrA Asp94Asn mutant incubated for 28 days by absolute concentration method
[38] = system: Mycobacterium tuberculosis; test: Antitubercular activity against resistant Mycobacterium tuberculosis harboring gyrA Asp94His mutant incubated for 28 days by absolute concentration method
[39] = system: Mycobacterium tuberculosis; test: Antitubercular activity against resistant Mycobacterium tuberculosis harboring gyrB Ala90Val mutant incubated for 28 days by absolute concentration method
[40] = system: Mycobacterium tuberculosis; test: Antitubercular activity against resistant Mycobacterium tuberculosis harboring gyrB T511N mutant incubated for 28 days by absolute concentration method
[41] = system: Mycobacterium tuberculosis; test: Antitubercular activity against resistant Mycobacterium tuberculosis harboring gyrA Asp94Gly mutant incubated for 28 days by absolute concentration method

NC(=O)c1cnccn1 [PYRAZINAMIDE]
MIC [1]: >=400 - 800 ug ml-1
MIC [2]: >=400 - 800 ug ml-1

CC[C@@H](CO)NCCN[C@@H](CC)CO [ETHAMBUTOL]
MIC [3]: 10 to 50 µg/mL
MIC [4]: 10 to 50 µg/mL

NCC[C@H](O)C(=O)N[C@@H]1C[C@H](N)[C@@H](O[C@H]2O[C@H](CN)[C@@H](O)[C@H](O)[C@H]2O)[C@H](O)[C@H]1O[C@H]1O[C@H](CO)[C@@H](O)[C@H](N)[C@H]1O [AMIKACIN]
MIC [5]: 4 µg/mL (≈ 6.83 µM)

N=C1NCC[C@H]([C@@H]2NC(=O)/C(=C/NC(N)=O)NC(=O)[C@H](CNC(=O)C[C@@H](N)CCCN)NC(=O)[C@H](CO)NC(=O)[C@@H](N)CNC2=O)N1 (H-[Dap]S[Dap](β3hOrn)[ΔAla(Z-3-ureido)][X1]; lactam 1-C)
MIC [6]: >2.5 µg/mL

NNC(=O)c1ccncc1 [ISONIAZID]
MIC [7]: 3.2 to 12.8 µg/mL
MIC [8]: 3.2 to 12.8 µg/mL
MIC [9]: >19.2 µg/mL
MIC [10]: 3.2 to 12.8 µg/mL
MIC [11]: 0.16 to 0.8 µg/mL (≈ 1.17 to 5.83 µM)
MIC [12]: 0.16 to 0.8 µg/mL
MIC [13]: >19.2 µg/mL
MIC [14]: 3.2 to 12.8 µg/mL

CO[C@H]1/C=C/O[C@@]2(C)Oc3c(C)c(O)c4c(O)c(c(/C=N/N5CCN(C)CC5)c(O)c4c3C2=O)NC(=O)/C(C)=C\C=C\[C@H](C)[C@H](O)[C@@H](C)[C@@H](O)[C@@H](C)[C@H](OC(C)=O)[C@@H]1C [RIFAMPIN]
MIC [15]: >=2 - 200 ug ml-1
MIC [16]: >=2 - 200 ug ml-1
MIC [17]: >=2 - 200 ug ml-1
MIC [18]: >=2 - 200 ug ml-1
MIC [19]: >=2 - 200 ug ml-1
MIC [20]: >=2 - 200 ug ml-1
MIC [21]: >=2 - 200 ug ml-1
MIC [22]: >=2 - 200 ug ml-1
MIC [23]: >=2 - 200 ug ml-1
MIC [24]: >=2 - 200 ug ml-1
MIC [25]: >=2 - 200 ug ml-1
MIC [26]: >=2 - 200 ug ml-1
MIC [27]: >=2 - 200 ug ml-1
MIC [28]: >=2 - 200 ug ml-1
MIC [29]: >=2 - 200 ug ml-1
MIC [30]: >=2 - 200 ug ml-1

CC(=O)NC[C@H]1CN(c2ccc(N3CCOCC3)c(F)c2)C(=O)O1 [LINEZOLID]
MIC [31]: >1 µg/mL
MIC [32]: 0.125 to 0.5 µg/mL (≈ 0.371 to 1.48 µM)

NC[C@H]1O[C@H](O[C@H]2[C@H](O)[C@@H](O[C@H]3O[C@H](CO)[C@@H](O)[C@H](N)[C@H]3O)[C@H](N)C[C@@H]2N)[C@H](O)[C@@H](O)[C@@H]1O [KANAMYCIN]
MIC [33]: >2.5 µg/mL
MIC [34]: >2.5 µg/mL
MIC [35]: >2.5 µg/mL
MIC [6]: >2.5 µg/mL

C[C@H]1COc2c(N3CCN(C)CC3)c(F)cc3c(=O)c(C(=O)O)cn1c23.C[C@H]1COc2c(N3CCN(C)CC3)c(F)cc3c(=O)c(C(=O)O)cn1c23.O [LEVOFLOXACIN]
MIC [36]: >10 µg/mL
MIC [37]: >10 µg/mL
MIC [38]: >10 µg/mL
MIC [39]: >1 µg/mL
MIC [40]: >1 µg/mL
MIC [41]: >10 µg/mL
